In ChEMBL document CHEMBL1134056, “Diaryl ether inhibitors of farnesyl-protein transferase” (Bioorg Med Chem Lett, 2001):

Assays:
[1] = target: Protein farnesyltransferase (Rattus norvegicus, UniProt Q02293+Q04631); experiment: Displacement of radiolabeled FTI from Farnesyltransferase in cultured v-Ha-ras-transformed RAT1 cells; type: functional, cell-based
[2] = target: Protein farnesyltransferase (Homo sapiens, UniProt P49354+P49356); experiment: Inhibition of rate of incorporation of [3H]FPP into recombinant Ras-CVIM by human farnesyltransferase.; type: protein-complex assay
[3] = target: Geranylgeranyl transferase type I (Homo sapiens, UniProt P49354+P53609); experiment: Inhibition of rate of incorporation of [3H]GGPP into a biotinylated peptide corresponding to C-terminus of human Ki-Ras by human geranylgeranyl-transferase type I.; type: protein-complex assay

SMILES | IC50 [1] [µM] | IC50 [2] [µM] | IC50 [3] [µM]
N#Cc1ccc(Cn2ccnc2)cc1Sc1ccc(Cl)cc1Cl | 0.096 | < 0.001 | 0.023
N#Cc1ccc(Cn2ccnc2)cc1Oc1ccc2ccccc2c1 |  | 0.0011 | 0.52
N#Cc1ccc(Cn2ccnc2)cc1Oc1cccc(C(=O)Nc2ccccc2)c1 |  | 0.038 | 3.3
COc1ccc(Oc2cc(Cn3ccnc3)ccc2C#N)cc1 |  | 0.29 | 3.5
N#Cc1ccc(Cn2ccnc2)cc1Oc1ccc(Cl)c(Cl)c1 |  | 0.028 | 1.2
N#Cc1ccc(Cn2ccnc2)cc1Oc1cccc(NC(=O)c2ccccc2)c1 |  | 0.038 | 2
N#Cc1ccc(Cn2ccnc2)cc1Oc1cccc(Cl)c1 |  | 0.053 | 3.2
N#Cc1ccc(Cn2ccnc2)cc1Oc1ccc(Cl)cc1 |  | 0.038 | 0.92
N#Cc1ccc(Cn2ccnc2)cc1OCCCCc1ccccc1 |  | 0.44 | 0.38
N#Cc1ccc(Cn2ccnc2)cc1OCCc1ccc(-c2ccccc2)cc1 |  | 0.086 | 12
N#Cc1ccc(Cn2ccnc2)cc1OCc1ccccc1 |  | 1.5 | 6.8
N#Cc1ccc(Cn2ccnc2)cc1Oc1cccc(Br)c1 |  | 0.038 | 2.9
COc1cccc(Oc2cc(Cn3ccnc3)ccc2C#N)c1OC | 0.014 | 0.001 | 15
N#Cc1ccc(Cn2ccnc2)cc1Oc1cccc(Cc2ccccc2)c1 |  | 0.23 | 0.6
N#Cc1ccc(Cn2ccnc2)cc1Oc1ccc(-c2ccccc2)cc1 |  |  | 1.3
COc1cccc(Oc2cc(Cn3ccnc3)ccc2C#N)c1 |  | 0.04 | 3.5
N#Cc1cccc(Oc2cc(Cn3ccnc3)ccc2C#N)c1 |  | 0.13 | 16
Cc1ncn(Cc2ccc(C#N)cc2)c1CN1CC(=O)N(c2cccc(Cl)c2)CC1CCS(C)(=O)=O (stereo not drawn) |  | 0.475 | 
N#Cc1ccc(Cn2ccnc2)cc1Oc1ccccc1Cl |  | 0.041 | 1.1

SMILES | IC50 [1] [µM] | IC50 [2] [µM] | IC50 [3] [µM]
N#Cc1ccc(Cn2ccnc2)cc1S(=O)(=O)c1ccc(Cl)cc1Cl |  | 5.4 | 8.8
CCC1(c2cccc(Oc3cc(Cn4ccnc4)ccc3C#N)c2)CCCCN(C)C1=O (stereo not drawn) | 0.0049 | 0.0029 | 0.0071
N#Cc1ccc(Cn2ccnc2)cc1OCCCc1ccccc1 |  | 0.2 | 3.1
N#Cc1ccc(Cn2ccnc2)cc1Oc1cccc(F)c1 |  | 0.18 | 4.4
CC(=O)c1cccc(Oc2cc(Cn3ccnc3)ccc2C#N)c1 |  | 0.045 | 6.1
N#Cc1ccc(Cn2ccnc2)cc1Oc1cccc(-c2ccccc2)c1 |  | 0.0096 | 0.52
N#Cc1ccc(Cn2ccnc2)cc1Oc1cccc2ccccc12 |  | 0.15 | 3.2
COc1ccc(OC)c(Oc2cc(Cn3ccnc3)ccc2C#N)c1 |  | 0.1 | 18
N#Cc1ccc(Cn2ccnc2)cc1OCCc1ccccc1 |  | 0.86 | 7
N#Cc1ccc(Cn2ccnc2)cc1Oc1ccc(Cl)cc1Cl | 0.26 | 0.008 | 0.28
N#Cc1ccc(Cn2ccnc2)cc1Oc1cccc(Nc2ccccc2)c1 |  | 0.017 | 0.63
N#Cc1ccc(Cn2ccnc2)cc1Oc1cccc(C(=O)c2ccccc2)c1 |  | 0.013 | 0.84
N#Cc1ccc(Cn2ccnc2)cc1Oc1ccccc1-c1ccccc1 |  | 0.11 | 0.74
CC(C)(C)c1cccc(Oc2cc(Cn3ccnc3)ccc2C#N)c1 |  | 0.027 | 0.52
N#Cc1ccc(Cn2ccnc2)cc1Oc1cccc(Oc2ccccc2)c1 |  | 0.014 | 0.28
COc1ccccc1Oc1cc(Cn2ccnc2)ccc1C#N |  | 0.34 | 28
N#Cc1ccc(Cn2ccnc2)cc1Oc1ccccc1 |  | 0.23 | 3.7
C#Cc1cccc(Oc2cc(Cn3ccnc3)ccc2C#N)c1 |  | 0.027 | 2.6
N#Cc1ccc(Cn2ccnc2)cc1[S+]([O-])c1ccc(Cl)cc1Cl (stereo not drawn) |  | 0.39 | 2
